Test results taken from patent US10532038B2, “Beta-3 adrenoceptor agonists for the treatment of pulmonary hypertension” (FUNDACIÓN CENTRO NACIONAL DE INVESTIGACIONES …, priority 2012, dated 2020).

Tests used:
animals with acute PH = experiment: Single dose in acute PH due to pulmonary embolism; format: in vivo, pigs; conditions: 5 μg/Kg endovenous, 10 minutes after administration
Text: In 10 2 month old healthy pigs (weighing ≈30 kg) anesthetized, intubated and ventilated with 40% FiO2, while continuously monitoring blood pressure, heart rate (HR), oxygen saturation as well as PAP and repeated measurements of cardiac output (CO) by means of thermodilution using a Swan-Ganz catheter, acute PH was generated by means of pulmonary embolization with a suspension of microspheres (Sephadex G50 coarse; Pharmacia Biotech; Freiburg, Germany) by femoral vein route. The dose necessary for causing an increase of mean PAP≥40 mmHg to remain stable for 10 minutes was administered. At that time the animals were randomized to receive specific β3 agonist BRL37344 (5 μg/Kg) or physiological saline (vehicle).
(§1) Cardiac output was quantified by the thermodilution technique.
(§2) A value of P<0.05 was considered significant.

[1] = system: post-capillary chronic PH model; experiment: Single dose in chronic post-capillary PH
Text: The post-capillary PH model was generated by means of the non-restrictive surgical cerclage of the main pulmonary vein in 4 week old piglets (weighing about 10 kg). This vein drains the blood from both lower lung lobes, forming about 80% of the pulmonary mass. With analgesia and general anesthesia and under cardiac monitoring and orotraqueal intubation, the right external jugular vein and common carotid artery were located by means of surgical dissection. The Swan-Ganz catheter was introduced through the venous access to continuously monitor PAP, pulmonary capillary pressure and cardiac output. The arterial route also served to monitor systemic blood pressure during the surgical intervention. By means of right lateral thoracotomy through the fifth intercostal space, non-restrictive cerclage of the main pulmonary vein was performed by means of placing a 5 mm wide polyester band around the vessel fitting the at-rest diameter of the pulmonary venous confluence right before it enters the left atrium. […] It is therefore a progressive PH model (severity intensifies throughout follow-up). […] At the end of follow-up, the animals were euthanized and their hearts extracted for histological analysis.
(§3) The hemodynamic study was conducted by means of right heart catheterization strictly using the same methodology as in humans. Once PH was generated, the following parameters were quantified basally and after the administration of the β3 agonist, in duplicate: PAP, pulmonary capillary pressure and right atrial pressure. Cardiac output was quantified by the thermodilution technique. Five measurements were taken, and the mean of 3 measurements was considered after excluding the highest and lowest determinations. Left ventricular end-diastolic pressure was determined by means of placement of a pig-tail catheter inside the left ventricle through the femoral artery. Pulmonary vascular resistances were calculated as the difference between mean PAP and left ventricular end-diastolic pressure divided by the cardiac output and expressed in Wood units.
The effect of the drug was evaluated 10 minutes after administration in acute PH and 20 minutes after administration in chronic PH.
The continuous variables are expressed as mean±SD and qualitative variables are expressed as frequency (%). The comparison between the intervention groups with respect to changes in the variables, calculated as the difference between the post-treatment and pre-treatment value (both in acute PH and chronic PH), was performed by means of the Wilcoxon test. The evaluation of the effect of a single dose of β3 agonist on the hemodynamic parameters in chronic PH was performed by means of the Student's T test or Wilcoxon test for paired data, according to the distribution of the variables. A value of P<0.05 was considered significant.

[2] = system: pre-capillary chronic PH model; experiment: Single dose in chronic pre-capillary PH; format: in vivo, Large-White pigs, Sus scrofa
Text: The pre-capillary PH model was generated by means of pulmonary arterial embolization with synthetic microspheres 300 microns in diameter (Sephadex G50 coarse; Pharmacia Biotech; Freiburg, Germany), a variant of a model previously described (Bernd W. Bottiger, MD; Johann Motsch, MD; Joachim Dorsam, MD; UlfMieck, MD; Andre Gries, MD, forg Weimann, MD; and Eike Martin, MD. Inhaled Nitric Oxide Selectively Decreases Pulmonary Artery Pressure and Pulmonary Vascular Resistance Following Acute Massive Pulmonary Microembolism in Piglets. CHEST1996; 110:1041-47).
The protocol was initiated in 3 month old Large-White pigs, Sus scrofa species (weighing ≈40 kg). After general anesthesia and analgesia and under cardiac monitoring and orotracheal intubation, the femoral vein and artery were cannulated by means of percutaneous puncture in the cardiac hemodynamics laboratory. Through the venous access, a Swan-Ganz catheter was placed in one of the main branches of the pulmonary artery (PA), which was connected to a monitor to continuously record PAP and to quantify pulmonary capillary pressure and cardiac output. The arterial route allowed continuously recording systemic blood pressure. Venous access served to administer the microspheres towards the pulmonary arterial circulation. A solution was prepared with 500 mg of microspheres in 200 ml of physiological saline and the amount necessary to reach mean sustained PAP>40 mmHg in about 20 minutes was administered. This method was repeated weekly (3-5 embolizations) until generating chronic PH (mean PAP>25 mmHg at rest). Two-month follow-up was conducted on the animals. […] The histopathological lesions observed in the lung reproduce those shown in arterial PH or chronic thromboembolic PH in humans: arterial intima proliferation with media hypertrophy and perivascular fibrosis, vascular occlusions, and complex lesions such as vascular aneurisms or plexiform lesions.
as §1, §2

[3] = system: animals with post-capillary chronic PH; experiment: Chronic endovenous treatment in post-capillary chronic PH (blind, randomized); conditions: 10 μg/Kg/day for 14 days
Text: The post-capillary PH model was generated by means of the non-restrictive surgical cerclage of the main pulmonary vein in 4 week old piglets (weighing about 10 kg). This vein drains the blood from both lower lung lobes, forming about 80% of the pulmonary mass. With analgesia and general anesthesia and under cardiac monitoring and orotraqueal intubation, the right external jugular vein and common carotid artery were located by means of surgical dissection. The Swan-Ganz catheter was introduced through the venous access to continuously monitor PAP, pulmonary capillary pressure and cardiac output. The arterial route also served to monitor systemic blood pressure during the surgical intervention. By means of right lateral thoracotomy through the fifth intercostal space, non-restrictive cerclage of the main pulmonary vein was performed by means of placing a 5 mm wide polyester band around the vessel fitting the at-rest diameter of the pulmonary venous confluence right before it enters the left atrium. […]
as §3, with “Five measurements were taken, and the mean of 3 measurements was considered after excluding the highest and lowest determinations.” left out
The continuous variables are expressed as mean±SD and qualitative variables are expressed as frequency (%). The comparison between the intervention groups with respect to changes in the variables, calculated as the difference between the post-treatment and pre-treatment value (both in acute PH and chronic PH), was performed by means of the Wilcoxon test. […]

[4] = system: animals with post-capillary chronic PH; experiment: Chronic oral treatment in post-capillary chronic PH (blind, randomized); format: in vivo, pigs; conditions: 50 mg/12 hours orally for 14 days; intermediate analysis (N=4); control group showed an increase of PVRs
Method: as §1
To evaluate the chronic effect of treatment with Mirabegron, a 50 mg tablet was administered orally every 12 hours in all cases. The fixed dose for all the animals was based on doses used in humans for different pathologies (never PH because it has never been tested in this entity), resulting in no adverse effects. The dose used for treating neurogenic bladder is 25 to 50 mg/day, whereas in studies designed to evaluate the effect of this drug in heart failure (see “Beta 3 Agonist Treatment in Heart Failure (Beat-HF) NCT01876433”), the expected initial dose is 25 mg/12 hours, being titrated to a maximum of 150 mg/12 hours. The dose of 50 mg/12 hours intends to be an average dose that can be easily extrapolated to patients with whom an efficacy study could be conducted knowing that the side effect profile is favorable.
Another cohort of animals with post-capillary chronic PH were randomized into chronic therapy for 14 days with Mirabegron (Myrbetrig® 50 mg/12 hours) or placebo. Right heart catheterization was performed pre- and post-treatment.

[5] = 5 μg/Kg endovenous single dose, 20 minutes after administration

SMILES: C[C@H](Cc1ccc(OCC(=O)O)cc1)NC[C@H](O)c1cccc(Cl)c1 [BRL 37344, [4-[(2R)-2-[[(2R)-2-(3-clorophenyl)-2-hydroxyethyl]amino]propyl]phenoxy]acetic acid]
- variation of mean systemic blood pressure (animals with acute PH; placebo 1.0±7.4, p=0.31, not significant): −4.6±8.0
- change of CO (post- minus pre-treatment) (animals with acute PH; placebo −0.20±0.31, p=0.008): 0.62±0.53
- change of PVR (post- minus pre-treatment) (animals with acute PH; placebo −0.4±1.3, p=0.008): −6.5±2.4
- variation of HR (animals with acute PH; placebo −3.0±7.1, p=0.84, not significant): −4.4±14.1
- change of PAPm (post- minus pre-treatment) (animals with acute PH; placebo −3.8±4.2, p=0.008): −13.0±4.5
- increase of oxygen saturation [1, 5]: 3.2%
- increase of the cardiac output [1, 5]: 18%
- reduction of pulmonary vascular resistances [1, 5]: 36%
- reduction of systolic pulmonary pressure [1, 5]: 23%
- reduction of the mean PAP [1, 5]: 30%
- cardiac output after administration ([1]; 5 μg/Kg endovenous, 20 minutes, from 3.29±0.9 before, p=0.07): 3.90 ± 1.5 L/min
- pulmonary vascular resistances after administration ([1]; 5 μg/Kg endovenous, 20 minutes, from 10.0±4.3 before, p=0.002): 6.4±3.2 Wood units
- mean PAP after administration ([1]; 5 μg/Kg endovenous, 20 minutes, from 37.6±9.8 before, p<0.001): 28.8±9.8 mmHg
- systolic pulmonary pressure after administration ([1]; 5 μg/Kg endovenous, 20 minutes, from 50.6±15.5 before, p<0.001): 38.9±9.9 mmHg
- heart rate after administration ([1]; 5 μg/Kg endovenous, 20 minutes, from 83.8±21.1 before, p=0.20, no significant change): 87.8±16.8 bpm
- systemic blood pressure after administration ([1]; 5 μg/Kg endovenous, 20 minutes, from 85.7±13.9 before, p=0.11, no significant change): 79.9±6.9 mmHg
- oxygen saturation after administration ([1]; 5 μg/Kg endovenous, 20 minutes, from 90.88±2.64 before, p=0.001): 93.75±3.01%
- changes in heart rate [2, 5]: without significant changes
- changes in systemic blood pressure [2, 5]: without significant changes
- decrease of the mean PAP [2, 5]: 32%
- increase of oxygen saturation [2, 5]: 2%
- reduction of systolic PAP [2, 5]: 25%
- mean PAP after administration ([2]; 5 μg/Kg endovenous, 20 minutes, from 29.5±2.1 before): 20.0±5.7 mmHg
- systolic PAP after administration ([2]; 5 μg/Kg endovenous, 20 minutes, from 37.5±6.4 before): 28.0±8.5 mmHg
- change of pulmonary vascular resistances (PVRs) after 14 days ([3]; osmotic pump, jugular vein, placebo +1.3±1.2, p=0.042): −1.2±1.6 WU
- change in heart rate after 14 days ([3]; placebo 3.0±28.2, p=0.49, not significant): −8.2±15.1 bpm
- change in systemic mean blood pressure after 14 days ([3]; placebo 4.3±7.0, p=0.25, not significant): 2.3±6.9 mmHg

SMILES: Nc1nc(CC(=O)Nc2ccc(CCNC[C@H](O)c3ccccc3)cc2)cs1 [Mirabegron]
- change of PVRs after 14 days [4]: a reduction of PVRs was observed
